Measured values: patent US7956059B2, “Aliphatic amide and ester pyrazinoylguanidine sodium channel blockers” (Parion Sciences, Inc., priority 2004, dated 2011)
Several values for one entry are separate records, joined by “and”; a condition that tells them apart may be missing. Equal values may be shown once. Where a name gives a salt, the structure may show the parent alone.

Row | SMILES | melting point
1 | N=C(NCCCCCCCCCCCC(=O)N1CCNCC1)NC(=O)c1nc(Cl)c(N)nc1N (as salt: hydrochloride) [ALB 27069, N-(3,5-Diamino-6-chloropyrazine-2-carbonyl)-N′-(12-oxo-12-piperazin-1-yl-dodecyl)guanidine dihydrochloride] | 148 to 150 °C
2 | CN(C)CCCNC(=O)CCCCCCCCCCN(C(=N)N)C(=O)c1nc(Cl)c(N)nc1N (as salt: salt) [ALB 27160, 11-[N-(3,5-Diamino-6-chloropyrazine-2-carbonyl)guanidino]undecanoic acid (3-dimethylaminopropyl)amide] | 52 to 56 °C
3 | N=C(N)N(CCCCCCCCCCC(=O)O)C(=O)c1nc(Cl)c(N)nc1N [ALB 26795, 11-[N-(3,5-Diamino-6-chloropyrazine-2-carbonyl)guanidino]undecanoic acid] | 181 to 191 °C
4 | N=C(NCCCCCCCCCCCC(=O)O)NC(=O)c1nc(Cl)c(N)nc1N [ALB 26799, 12-[N′-(3,5-diamino-6-chloropyrazine-2-carbonyl)guanidino]-dodecanoic acid] | 194 to 196 °C and 192 to 194 °C
5 | CN(C)CCCNC(=O)CCCCCCCCCCCNC(N)=NC(=O)c1nc(Cl)c(N)nc1N [ALB 26982, 12-[N′-(3,5-Diamino-6-chloropyrazine-2-carbonyl)guanidino]dodecanoic acid (3-dimethylaminopropyl)amide] | 82 to 84 °C
6 | NC(=NC(=O)c1nc(Cl)c(N)nc1N)NCCCCCCCCCCCC(=O)Nc1ncc[nH]1 [ALB 27070, 12-[N′-(3,5-Diamino-6-chloropyrazine-2-carbonyl)guanidino]dodecanoic acid (1H-imidazol-2-yl)amide] | 102 to 104 °C
7 | N=C(N)N(CCCCCCCCCCC(N)=O)C(=O)c1nc(Cl)c(N)nc1N [ALB 27317, 11-[N-(3,5-Diamino-6-chloropyrazine-2-carbonyl)guanidino]undecanoic acid amide] | 69 to 72 °C
